In ChEMBL document CHEMBL1201862, “PubChem BioAssay data set” (2004) one finds IC50, EC50 and AC50 data, which are given here for 29 compounds.

Calls of active or inactive are those of the source. Rule as the data show it, for most assays here: actives have a measured EC50 and inactives only a lower limit.

One experiment has as its target T1, Protein skinhead-1 (Caenorhabditis elegans, UniProt P34707).
T1 sequence (P34707 whole entry): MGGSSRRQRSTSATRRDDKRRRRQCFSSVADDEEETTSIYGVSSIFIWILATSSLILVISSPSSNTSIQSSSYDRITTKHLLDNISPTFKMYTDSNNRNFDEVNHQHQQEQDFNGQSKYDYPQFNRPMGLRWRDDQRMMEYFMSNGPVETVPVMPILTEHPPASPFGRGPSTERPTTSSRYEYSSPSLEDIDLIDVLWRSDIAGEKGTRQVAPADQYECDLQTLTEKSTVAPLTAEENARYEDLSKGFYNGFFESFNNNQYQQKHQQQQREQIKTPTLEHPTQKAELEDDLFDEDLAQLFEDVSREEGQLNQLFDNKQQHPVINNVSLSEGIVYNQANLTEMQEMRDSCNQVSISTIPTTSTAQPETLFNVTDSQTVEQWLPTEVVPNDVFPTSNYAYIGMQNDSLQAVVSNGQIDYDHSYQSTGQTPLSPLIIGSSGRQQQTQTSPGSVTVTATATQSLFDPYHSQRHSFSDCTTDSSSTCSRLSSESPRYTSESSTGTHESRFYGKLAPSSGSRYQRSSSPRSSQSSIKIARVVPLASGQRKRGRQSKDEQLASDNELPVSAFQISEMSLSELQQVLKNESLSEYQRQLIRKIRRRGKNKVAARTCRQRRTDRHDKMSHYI
The experiment is classed as functional.

The target in experiment [1] is T2, Rac GTPase-activating protein 1 (Homo sapiens, UniProt Q9H0H5).
T2 sequence (Q9H0H5 whole entry): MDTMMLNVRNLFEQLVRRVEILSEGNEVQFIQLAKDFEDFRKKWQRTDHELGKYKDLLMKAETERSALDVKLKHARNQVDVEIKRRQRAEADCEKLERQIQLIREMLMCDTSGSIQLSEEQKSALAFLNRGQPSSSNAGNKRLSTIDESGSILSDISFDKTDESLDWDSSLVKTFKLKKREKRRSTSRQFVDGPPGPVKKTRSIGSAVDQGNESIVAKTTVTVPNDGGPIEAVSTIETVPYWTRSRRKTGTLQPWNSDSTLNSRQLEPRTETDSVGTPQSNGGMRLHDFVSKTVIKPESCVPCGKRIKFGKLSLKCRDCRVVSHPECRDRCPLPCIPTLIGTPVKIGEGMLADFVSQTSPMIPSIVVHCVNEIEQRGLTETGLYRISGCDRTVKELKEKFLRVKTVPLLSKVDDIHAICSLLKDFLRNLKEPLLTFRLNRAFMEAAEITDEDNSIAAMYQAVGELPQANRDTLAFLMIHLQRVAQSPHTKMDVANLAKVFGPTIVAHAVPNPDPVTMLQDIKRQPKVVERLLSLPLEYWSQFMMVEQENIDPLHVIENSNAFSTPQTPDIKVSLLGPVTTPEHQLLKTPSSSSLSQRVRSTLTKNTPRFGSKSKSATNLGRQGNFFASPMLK
Kind of experiment: MgcRacGAP GTPase-activating activity inhibitors, confirmation, biochemical, ADP Hunter fluorescence, primary and confirmatory (AID 624330). Format: functional.

Experiment [2] is described as follows: cells. The experiment is classed as functional, cell-based.
Experiment [3] is described as follows: cells. The experiment is classed as functional, cell-based. The source holds these as a separate data set.
A short description of experiment [4]: Luminescence Cell-Based Dose Confirmation HTS to Identify Activators of 5'UTR Stem-Loop Driven Alpha-Synuclein mRNA Translation in H4 Neuroglioblastoma Cells. [Related pubchem assays: 1829 (Project Summary), 1814 (Primary HTS)]. The experiment is classed as functional.
The nature of experiment [5]: growth suppression of PTEN-null colon cells, dose response, cell-based, HCT116 PTEN knockout (AID 1047).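 Also: HCT116 colon tumor cells with PTEN knocked out; cells exposed to compound for 60 hours before readout; potency for loss of cell viability measured by luminescence.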 The experiment is classed as functional.
Experiment [6] in a line: growth suppression of beta-catenin-knockout colon cells, dose response, cell-based, HCT116, human colon tumor (AID 1045).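 Also: HCT116 colon tumor cells with beta catenin knocked out; cells exposed to compound for 60 hours.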 Format: functional.
Experiment [7] in a line: inhibitors of intracellular T. cruzi replication, confirmation, NIH3T3 host cells, beta-gal luminescence (AID 2044).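 Also: intracellular parasites grown in NIH/3T3 mouse fibroblasts as host cells; luminescent beta-galactosidase reporter signal from transgenic T. cruzi replicating inside host cells; inhibitors lower the luminescence signal.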 The experiment is classed as functional, cell-based.
The nature of experiment [8]: cytotoxicity toward NIH3T3 fibroblasts, dose response, counter-screen, cell-based, ATP luminescence, mouse fibroblasts (AID 2010).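 Also: cells exposed to compound for about 90 hours before reading.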 Format: functional. A general note: A counterscreen serves to expose hits that act by an unwanted route or on another target.
In a further experiment the test system is INS1. The experiment in a line: beta cell apoptosis inhibitors, cytokine rescue, dose response, luminescence, retest (AID 449756).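 Also: cell death triggered by IL-1 beta plus TNF-alpha plus IFN-gamma mixture; protective hits raise ATP signal compared with cytokine alone wells.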 Format: functional, cell-based. The settings on record: Rattus norvegicus.
The nature of experiment [9]: Luminescence Cell-Based Dose Response HTS to Identify Activators of Luciferase Translation or Activity in H4 […] Cells. [Related pubchem assays: 1829 (Project Summary), 1814 (Primary HTS)]. The experiment is classed as functional.
The next experiment has as its system H4. The experiment in a line: Luminescence Cell-Based Dose Response HTS to Identify Activators of 5'UTR Stem-Loop Driven Prion Protein mRNA Translation in H4 Neuroglioblastoma Cells. [Related pubchem assays: 1829 (Project Summary), 1814 (Primary HTS)]. The settings on record: Homo sapiens. Format: functional.
In a further experiment the target is Large T antigen (Simian virus 40, UniProt P03070). The experiment is classed as functional, Betapolyomavirus macacae.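 Also: Confirmatory-stage PubChem screen for compounds that inhibit SV40 T antigen.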
Experiment [10] deals with T3, Corticotropin-releasing factor receptor 2/Corticotropin-releasing factor-binding protein (Homo sapiens, UniProt P24387+Q13324).
T3 sequence (Q13324 whole entry): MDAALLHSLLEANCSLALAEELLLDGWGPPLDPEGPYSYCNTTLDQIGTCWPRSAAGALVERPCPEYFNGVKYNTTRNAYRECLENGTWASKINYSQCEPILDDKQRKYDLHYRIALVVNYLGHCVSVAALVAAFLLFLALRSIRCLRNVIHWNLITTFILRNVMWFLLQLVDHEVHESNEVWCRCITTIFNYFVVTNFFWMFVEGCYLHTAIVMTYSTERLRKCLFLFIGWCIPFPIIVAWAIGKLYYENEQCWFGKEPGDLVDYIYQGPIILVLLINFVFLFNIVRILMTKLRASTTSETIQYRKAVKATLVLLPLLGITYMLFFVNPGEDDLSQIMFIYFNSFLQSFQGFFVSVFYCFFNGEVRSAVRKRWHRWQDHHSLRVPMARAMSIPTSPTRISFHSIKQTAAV
T3 sequence (P24387 whole entry): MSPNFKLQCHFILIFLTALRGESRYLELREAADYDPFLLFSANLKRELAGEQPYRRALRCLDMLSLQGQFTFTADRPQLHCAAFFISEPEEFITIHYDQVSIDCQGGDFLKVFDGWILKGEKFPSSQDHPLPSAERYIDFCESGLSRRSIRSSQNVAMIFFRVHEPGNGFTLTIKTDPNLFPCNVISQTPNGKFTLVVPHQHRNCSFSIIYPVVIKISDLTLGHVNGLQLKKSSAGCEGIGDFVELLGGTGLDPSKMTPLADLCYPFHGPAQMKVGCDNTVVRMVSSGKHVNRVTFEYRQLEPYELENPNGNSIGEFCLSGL
The experiment in a line: activators of CRF receptor 2 with binding protein – uHTS hits, confirmation (AID 602473). The experiment is classed as functional. The settings on record: read-out: EC50_Mean.

Experiment [11] has as its target FAD-linked sulfhydryl oxidase ALR (Homo sapiens, UniProt P55789). The experiment in a line: inhibitors of human ALR sulfhydryl oxidase, dose response, biochemical, H2O2 detection, luminescence, cherry-pick (AID 493248).

Sequence of Large T antigen (P03070 whole entry): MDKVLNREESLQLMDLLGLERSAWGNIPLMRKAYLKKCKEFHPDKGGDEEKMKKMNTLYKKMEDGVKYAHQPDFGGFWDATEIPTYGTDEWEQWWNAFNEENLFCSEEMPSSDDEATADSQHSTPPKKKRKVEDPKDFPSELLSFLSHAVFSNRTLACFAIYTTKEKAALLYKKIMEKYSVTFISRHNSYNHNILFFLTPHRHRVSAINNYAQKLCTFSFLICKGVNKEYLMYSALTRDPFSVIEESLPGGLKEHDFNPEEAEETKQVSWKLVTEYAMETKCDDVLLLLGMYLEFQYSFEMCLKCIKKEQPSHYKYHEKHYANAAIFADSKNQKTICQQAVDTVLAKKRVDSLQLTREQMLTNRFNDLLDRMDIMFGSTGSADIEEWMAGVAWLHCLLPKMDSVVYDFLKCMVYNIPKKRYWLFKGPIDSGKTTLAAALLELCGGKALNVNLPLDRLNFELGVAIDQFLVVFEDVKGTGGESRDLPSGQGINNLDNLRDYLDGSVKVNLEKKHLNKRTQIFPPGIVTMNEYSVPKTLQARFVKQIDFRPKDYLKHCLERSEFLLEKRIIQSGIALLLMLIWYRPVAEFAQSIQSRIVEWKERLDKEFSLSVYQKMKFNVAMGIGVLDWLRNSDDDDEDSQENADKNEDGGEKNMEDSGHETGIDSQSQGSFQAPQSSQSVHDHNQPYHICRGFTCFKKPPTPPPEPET
Sequence of FAD-linked sulfhydryl oxidase ALR (P55789 whole entry): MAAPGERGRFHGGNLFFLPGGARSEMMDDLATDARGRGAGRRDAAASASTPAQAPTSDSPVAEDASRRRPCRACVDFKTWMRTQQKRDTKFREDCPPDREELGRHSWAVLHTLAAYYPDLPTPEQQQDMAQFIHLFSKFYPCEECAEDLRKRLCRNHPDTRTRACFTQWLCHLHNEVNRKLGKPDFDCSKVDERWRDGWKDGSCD

What is called IC50 is the midpoint of a concentration-inhibition curve. Take `Cc1c(-c2csc(N)n2)c2ccccc2n1C`: the IC50 on Protein skinhead-1 is > 100 µM (inactive).

Turning to `NC(CSS(=O)(=O)O)=NCCC12CC3CC(CC(O)(C3)C1)C2`, the IC50 in experiment [1] was 142 µM (active).

With `Cc1ccc(C)c(CNS(=O)(=O)c2ccc3c(c2)C(C)(C)C(=O)N3C)c1`, the EC50 in the experiment “cells [2]” and in the experiment “cells [3]” was > 350 µM (not active) each time.

`FC(F)Oc1ccc(C2NC(c3ccccc3)=NO2)cc1` (stereo not given): the EC50 in experiment [4] was 0.115 µM (active). Besides, the IC50 at Protein skinhead-1 was 80.6 µM (inactive).

As for `CC(OC(=O)c1ncc(Cl)c(Cl)c1Cl)C(=O)NC1(C#N)CCCCC1` (stereo not given), the EC50 in the experiment “cells [2]” and in the experiment “cells [3]” was > 350 µM (not active) each time.

With `COc1ccccc1N1CCN(c2cc(=O)n(Cc3ccc(F)cc3)c(=O)[nH]2)CC1`, the values for the EC50 in experiment [5] and in experiment [6] were 10.5 µM (active) and 10.1 µM (active), respectively.

In the case of `CSc1sc(C(=O)N2CCCCC2)c(-c2cccs2)c1C#N`, the EC50 in “cells [2]” and in the experiment “cells [3]” was > 350 µM (not active) throughout.

As to `NSc1nc(N)c2nc(-c3ccccc3)c(-c3ccccc3)nc2n1`, the IC50 in experiment [1] is 99.2 µM (active).

In the case of `CC(C(=O)Nc1ccccc1-c1ccccc1)N(C)Cc1nc(O)c2ccccc2n1` (stereo not given), the EC50 in “cells [2]” and in “cells [3]” was > 350 µM (not active) in each case.

As to `CC(=O)c1cccc(NS(=O)(=O)c2ccc(-c3cc(C)no3)s2)c1`, the EC50 in the experiment “cells [2]” and in “cells [3]” was > 350 µM (not active) in each case.

For orientation: AC50 means the concentration giving half of the maximal activity seen. Take `Clc1ccc(CSc2ccc(-c3ccccn3)nn2)cc1`: the EC50 in “cells [2]” was 12.5 µM (active); in [7] it was 1.84 µM (active); in “cells [3]”, 43.7 µM (active); in [8], > 30 µM (not active). Further, the AC50 in the experiment on INS1 is 5.06 µM (active).

For the compound `CCS(=O)(=O)c1ccc(-c2cccc(NC(=O)COc3ccccc3)c2)nn1`, the EC50 in “cells [2]” and in “cells [3]” was > 350 µM (not active) each time.

Take `CCOCCn1c(COc2ccccc2)nc2ccccc21`: the IC50 at Protein skinhead-1 is > 100 µM (inactive).

Turning to `COCCn1c(C)cc(C(=O)CN2C(=O)NC3(CCCCCCC3)C2=O)c1C`, the results for the EC50 (in experiment [4]; in [9]; in the experiment with H4) were 0.94 µM (active), 0.283 µM (active) and 8.28 µM (active), respectively.

For `Cc1ccc2sc(NC(=O)c3cccc(N4C(=O)CCC4=O)c3)nc2c1C`, on Protein skinhead-1, the IC50 is > 100 µM (inactive).

On to `CC(NS(=O)(=O)c1ccc(Cl)cc1)C(=O)OCC(=O)Nc1ccc(N(C)C)cc1` (stereo not given), for which, in experiment [1], the IC50 was 65.1 µM (active).

Take `CC(C)c1ccc(NC(=O)[C@@H]2CCC(=O)N2C2OC(=O)c3ccccc32)cc1` (stereo not given in full): the figures for the EC50 (in experiment [4]; in experiment [9]; in the experiment on H4) were 0.143 µM (active), 24.5 µM (active) and 38.2 µM (active), respectively.

For `FC(F)(F)c1ccc(-c2csc(-c3ccno3)n2)cc1`, the IC50 at Protein skinhead-1 was 23.1 µM (active).

As for `Cc1ccc2[nH]c(SCC(=O)c3ccc(O)cc3O)nc2c1`, the EC50 in experiment [4] was 9.48 µM (active); in [9], 16.5 µM (active); in the experiment with H4, 52.9 µM (active).

`COc1ccc(NC2CCCN(C(=O)c3ccc(C)c(N4CCNC4=O)c3)C2)cc1` (stereo not given): in experiment [1], the IC50 was 129 µM (active).

Consider `COc1ccc(CN2CCN(C(=O)CC(C)C)CC2)cc1OC`, for which the IC50 in experiment [1] is 161 µM (active).

In the case of `O=C(Nc1ccc2c(c1)nc1n2CCN(Cc2ccccc2)C1)c1cccs1`, the EC50 in experiment [4] was 17.2 µM (active); in experiment [9], 13.6 µM (active); in the experiment on H4, > 120 µM (not active).

In the case of `COc1ccccc1C(=O)Nc1nnc(CCc2ccccc2)s1`, the EC50 is > 120 µM (not active) in experiment [4], 8.71 µM (active) in experiment [9] and > 120 µM (not active) in the experiment with H4.

For `C#Cc1ccc2c(c1)COc1c3ccccc3nn1-2`, the IC50 at Protein skinhead-1 is > 100 µM (inactive).

For `CCOC(=O)c1sc(NC(=O)CN2CC(C)OC(C)C2)nc1C` (stereo not given), on Protein skinhead-1, the IC50 is > 100 µM (inactive).

Turning to `COc1cc(/C=N/NC(=O)c2nc(C)cc(C)n2)ccc1O`, the values for the IC50 (on Large T antigen; in experiment [1]) were 39.5 µM (active) and 35.3 µM (active), respectively. For the same compound, the EC50 in experiment [10] is > 53 µM (inactive).

`O=C(N/N=C/c1ccc(N2CCOCC2)s1)c1ccc(O)cc1`: in experiment [1], the half-inhibitory concentration (IC50) is 23.5 µM (active).

Turning to `CN(C)c1cccc(O)c1`, the IC50 on Protein skinhead-1 was > 100 µM (inactive).

As for `COc1cc(/C=N/NC(=O)CCn2nnc3ccccc32)ccc1O`, the half-maximal inhibitory concentration (IC50) was 8.58 µM (active) on Large T antigen and 58.7 µM (active) in experiment [1]. Further, the AC50 in experiment [11] is 0.236 µM (active).
